One assay in a line: Overall brain weight. Type of assay: in vivo, mouse. As to conditions: as a result of knockout and treatment (Discussion).
The subject of assay [1] is visual cortex of adult MeCP2+/− mice. As to the kind of experiment: Ocular dominance plasticity after monocular deprivation, optical imaging of intrinsic signals. It counts as in vivo, mouse.
In another assay the test system is wild type young mice. As to conditions: Tropea et al., 2006; cited from earlier work.
For a further assay, the system named is MeCP2−/y mice. As to the kind of experiment: Survival and disease progression (Kaplan-Meier). Type of assay: in vivo, mouse. An excerpt:
A. (1-3) IGF-1 reduces the frequency of bradycardia in MeCP2 null mice. Pooled heart rate distributions observed across mice from different treatments, in beats per minute (bpm). The Y axis depicts the percent of observations within an experimental group that exceed a given bpm value (X axis). Comparisons are between 8 week old animals (WT or KO), some of which received (1-3)IGF-1 treatment for 6 weeks (KO-T). The KO distribution (pink) was left-shifted compared to the wild-type distribution (black), indicating a significant reduction in the distribution of heart rates. […] B. (1-3)IGF-1 treatment improves locomotor function in MeCP2 null mice. Baseline nocturnal activity was measured by placing animals in cages equipped with a movement detector (infrared beam). […] “N”=number of animals per group. C. (1-3)IGF-1 treated MeCP2 KO mice have longer life expectancy than vehicle treated controls. Kaplan-Meier survival curves for MeCP2-/y mice treated with vehicle (KO, red line) or (1-3)IGF-1 (KO-T, green line). […] MeCP2-/y mice were given daily IP injections of (1-3)IGF-1 (0.01 mg/g body weight/day) every day from 2 weeks of age onward. “n” is the number of mice per experimental group. (1-3)IGF-1 treatment: For the survival measurements, the nocturnal activity analysis and the immunoblot analysis, (1-3) IGF-1 (Bachem Biosciences # H22468) was administered daily via intra-peritoneal injections (0.01 mg/g body weight, vehicle=saline, 0.01% BSA). The treatment was started at P15 and maintained throughout the course of the experiments. For intracellular physiology experiments, the mice were injected daily (0.01 mg/g body weight, vehicle=saline, 0.01% BSA) for 2 weeks, from P15 to P28-P32 when they were used for acute slice preparation. For optical imaging experiments, mice were injected with (1-3) IGF-1 (0.02 mg/g body weight, vehicle=saline, 0.01% BSA) daily from the day of the lid suture to the day of imaging. Slice physiology preparation: Coronal sections (300 μm thick) at or near sensorimotor cortex were cut in <4° C. ACSF using a Vibratome. Slices were incubated at 37° C. for 20 minutes after slicing, and at room temperature for the remainder of the experiment. Slices were transferred to a Warner chamber and recordings were taken from visually identified pyramidal neurons located in layer 5. […] Cells were visualized with an Achroplan 40× water-immersion lens with infrared-DIC optics (Zeiss) and detected with an infrared camera (Hamamatsu) projecting to a video monitor. […] Then in current clamp 10 pulses (500 ms, 40-140 pA at 10 pA increments), were applied to quantify evoked firing rates and cellular excitability. […]

Consider `NCC(=O)N1CCC[C@H]1C(=O)N[C@@H](CCC(=O)O)C(=O)O` [(1-3)IGF-1, glycyl-L-prolyl-L-glutamic acid], for which the overall brain weight entry in the assay “Overall brain weight” was “small changes were seen”. For the same compound, the “maturation of cortical circuitry during ocular dominance plasticity (FIG. 9B)” value in assay [1] ((1-3)IGF-1 as in Example 1) is “promoted to similar degrees”. Besides, the “ocular dominance plasticity (ODI shift after MD, FIG. 3C-D)” value in assay [1] (female MeCP2+/− mice P60 or more, MD 4 days, 0.02 mg/g body weight IP daily during MD) is “prevented the OD plasticity”. The OD plasticity entry in the assay on wild type young mice is “abolish OD plasticity”. For the same compound, the “life expectancy, Kaplan-Meier survival curves (FIG. 4C)” value in the assay with MeCP2−/y mice (KO-T vs vehicle treated littermates, P=0.54*10^−7, log rank test) was “significantly longer life expectancy”. The “increase in life expectancy” value in the assay with MeCP2−/y mice (MeCP2−/y mice treated vs MeCP2 KO littermates, 0.01 mg/g body weight/day IP from 2 weeks of age) was roughly 50%. For the same compound, the 0.5 probability survival with MeCP2−/y mice (MeCP2−/y mice treated, untreated KO ~60 days) was 90 days. The “age at which symptoms develop” value with MeCP2−/y mice (treated MeCP2 knockout mice vs controls) is recorded as “at the same age as controls”.

The values are drawn from US7994127B2, “Treatment of rett syndrome” (Massachusetts Institute of Technology, priority 2007, dated 2011).
